Test results: patent publication US10047084B2, “Imidazolone derivatives, pharmaceutical compositions and uses thereof” (BEIJING FORELANDPHARMA CO. LTD., priority 2013, dated 2018)

Columns and labels:
mTOR kinase = mTOR kinase (Homo sapiens (Human), UniProt P42345); test: mTOR kinase activity assay (TR-FRET, GFP-4EBP1 substrate); type: biochemical; conditions: read-out: Enzyme (mTOR) IC50
Experimental: 1. mTOR Kinase Activity Assay: The inhibition of the mTOR protein kinase activity by the compounds was determined by the enzymatic activity assay in vitro. The detection kit supplied by Invitrogen was used to detect the inhibition of the activity of the mTOR […]. The principle of the assay was as follows: mTOR kinase, fluorescein-labeled substrate and ATP were mixed, and after the reaction, EDTA and terbium-labeled first antibody were added. During the chemical reaction process of the mTOR kinase, the antibody recognized the phosphorylated and fluorescein-labeled substrate, and then the “time-resolved fluorescence resonance energy transfer” (TR-FRET) effect was enhanced. TR-FRET effect was calculated as the ratio of signals from the acceptor fluorescein to signals from the donor terbium. The amount of the antibody bound to the tracer was directly proportional to the amount of the phosphorylated substrate after the reaction. In this way, the kinase activity can be detected. In this assay, the substrate of the mTOR kinase was green fluorescent protein-coupled 4E binding protein 1 (GFP-4EBP1).
1.1 Materials and Instruments:
4-Hydroxyethylpiperazine ethanesulfonic acid (HEPES, Sigma, Cat# SH3375), ethylene glycol-bis-(2-aminoethylether)-tetraacetic acid (EGTA, Sigma, Cat# E3889), manganese chloride (MnCl2, Sigma, Cat# M1787), Tween-20 (Tween-20, Amresco), 1,4-dithiothreitol (DTT, Merck, CB233155),

PC-3 = test: CTG cell survival assay, PC-3; type: cell-based; conditions: Homo sapiens, PC-3 cells
Source text: (§1) 2. CTG Cell Survival Assay:
(§2) ATP is necessarily produced during the metabolic activities of viable cells, and there is a linear relationship between the content of ATP and the number of viable cells. Cell viability assay by CTG chemiluminescence is a general method for detecting the number of viable cells in the culture cells based on this principle. The addition of the CellTiter-Glo (CTG) reagent may induce cell lysis and produce chemiluminescent signals directly proportional to the amount of ATP in the well-plate, and thereby the cell proliferation activity in the well-plate can be measured by the reading values from the chemiluminescence.
(§3) 2.1 Experimental Materials and Instruments:
(§4) 2.4 Experimental Procedure: • 1.4.1 Cell Thawing: Cryogenic vials were removed from the liquid nitrogen container, directly immersed in a water bath at 37° C., and shaked from time to time to thaw. The cryogenic vials were removed from the water bath at 37° C., and transferred to the biosafe cabinet. Their lids were opened, and the cell suspensions were aspirated with pipettes, added to centrifuge tubes, and then added with more than 10 volumes of culture solution, mixed well; centrifuged for 5 min at 1000 rpm; the supernatant was discarded, and medium containing cell growth was added to resuspend cells. All cell suspensions were seeded to the T25 culture flasks and static cultured in an incubator at 37° C.; the culture solution were changed once on the next day, and continued to be cultured. • 2.4.2 Cell Passaging: After cells were grown to logarithmic phase and were 80%-90% confluent, cells were removed and placed in the biosafe cabinet, the old culture solution was discarded, and the cells were wetted and washed with PBS once or twice. An appropriate amount of 0.25% Trypsin-EDTA solution was added to the culture flasks. The flasks were placed in the carbon dioxide incubator at 37° C. for 2-5 min. An appropriate amount of cell growth medium containing 10% PBS was added to terminate the digestion, lightly swished, and transferred to the centrifuge tubes and centrifuged for 5 min at 1000 rpm. The cells were prepare (into cell suspensions for passaging and experimental use. • 2.4.3 Cell Plating • 2.4.3.1 A cell suspension was prepared: After cells were grown to logarithmic phase and were 80%-90% confluent, the cells were removed to the biosafe cabinet, and the old culture solution was discarded, then the cells were wetted and washed with PBS once or twice. An appropriate amount of 0.25% Trypsin-EDTA solution was added to the culture flask. The flask was placed in a carbon dioxide incubator at 37° C. for 2-5 min. An appropriate amount of the cell growth medium containing 10% PBS was added to terminate digestion, and was lightly swished. The solution was transferred to a centrifuge tube, centrifuged for 5 min at 1000 rpm, and counted. […] Secondly, 20 uM of the compound to be tested was diluted with the cell growth medium containing 0.2% DMSO in 3-fold dilution to obtain 9 concentrations, and there were 10 concentration gradients in total. • 2.4.4.3 Addition of the compounds to be tested: the prepared gradient dilution solutions of compounds to be tested were taken and added to the cell culture plate at 100 ul/well; at this point, the maximum concentration of compounds to be tested was 10 uM, and the concentration of DMSO was 0.1%.

SK-BR3/BT474 = test: CTG cell survival assay, SK-BR3/BT474; type: cell-based; conditions: SK-BR3/BT474 cells
Source text: as §1, §2, §3, §4

MV-4-11 = test: CTG cell survival assay, MV-4-11; type: cell-based; conditions: Homo sapiens, MV4-11, MV-4-11 cells
Source text: as §1, §2, §3
2.1.1 Experimental Materials: compounds to be tested, cell basal culture medium, RPMI Medium 1640 (Invitrogen, Cat#11875-093), fetal calf serum (FBS): Hyclone FETAL BOVINE SERUM DEFINED (Invitrogen, Cat#SH30070.03), antibiotics: Penicilin Streptomycin (Invitrogen, Cat#15140-122), phosphate buffer (Corning Cellgro, Cat#R21-040-CV), cell digestive solution: 0.25% Trypsin-EDTA (Invitrogen, Cat#25200-056), CTG detection kit: Promega, Cat#G7571, flat-bottom 96-well black bottom plate: NUNC, Cat#165305, T25 culture flask: NUNC, Cat#156367, T75 culture flask: NUNC, Cat#156439
2.2 Experimental Instruments: Carbon Dioxide Incubator, SANYO-MCO-20AIC, Biosafe Cabinet: BSC-1360-LIIA2, Table-Top High-Speed Refrigerated Centrifuge: SorvallST 16R, Microplate Rapid Oscillator: QB-9001, M3 Reader: SpectraMax M3, Microscope: OLYMPUS-CKX41/CKX31.
2.3 Preparation of Solutions and Reagents: Formulation of cell growth medium: RPMI Medium 1640+10% FBS+antibiotics, others: trypsin digestive solution, phosphate buffer (PBS), DMSO, CTG detection kit.
2.4 Experimental Procedure: • 1.4.1 Cell Thawing: Cryogenic vials were removed from the liquid nitrogen container, directly immersed in a water bath at 37° C., and shaked from time to time to thaw. The cryogenic vials were removed from the water bath at 37° C., and transferred to the biosafe cabinet. Their lids were opened, and the cell suspensions were aspirated with pipettes, added to centrifuge tubes, and then added with more than 10 volumes of culture solution, mixed well; centrifuged for 5 min at 1000 rpm; the supernatant was discarded, and medium containing cell growth was added to resuspend cells. All cell suspensions were seeded to the T25 culture flasks and static cultured in an incubator at 37° C.; the culture solution were changed once on the next day, and continued to be cultured. • 2.4.2 Cell Passaging: After cells were grown to logarithmic phase and were 80%-90% confluent, cells were removed and placed in the biosafe cabinet, the old culture solution was discarded, and the cells were wetted and washed with PBS once or twice. An appropriate amount of 0.25% Trypsin-EDTA solution was added to the culture flasks. The flasks were placed in the carbon dioxide incubator at 37° C. for 2-5 min. An appropriate amount of cell growth medium containing 10% PBS was added to terminate the digestion, lightly swished, and transferred to the centrifuge tubes and centrifuged for 5 min at 1000 rpm. The cells were prepare (into cell suspensions for passaging and experimental use. • 2.4.3 Cell Plating • 2.4.3.1 A cell suspension was prepared: After cells were grown to logarithmic phase and were 80%-90% confluent, the cells were removed to the biosafe cabinet, and the old culture solution was discarded, then the cells were wetted and washed with PBS once or twice. An appropriate amount of 0.25% Trypsin-EDTA solution was added to the culture flask. The flask was placed in a carbon dioxide incubator at 37° C. for 2-5 min. An appropriate amount of the cell growth medium containing 10% PBS was added to terminate digestion, and was lightly swished. The solution was transferred to a centrifuge tube, centrifuged for 5 min at 1000 rpm, and counted. […]

Chain of mTOR kinase (P42345 1360-2549): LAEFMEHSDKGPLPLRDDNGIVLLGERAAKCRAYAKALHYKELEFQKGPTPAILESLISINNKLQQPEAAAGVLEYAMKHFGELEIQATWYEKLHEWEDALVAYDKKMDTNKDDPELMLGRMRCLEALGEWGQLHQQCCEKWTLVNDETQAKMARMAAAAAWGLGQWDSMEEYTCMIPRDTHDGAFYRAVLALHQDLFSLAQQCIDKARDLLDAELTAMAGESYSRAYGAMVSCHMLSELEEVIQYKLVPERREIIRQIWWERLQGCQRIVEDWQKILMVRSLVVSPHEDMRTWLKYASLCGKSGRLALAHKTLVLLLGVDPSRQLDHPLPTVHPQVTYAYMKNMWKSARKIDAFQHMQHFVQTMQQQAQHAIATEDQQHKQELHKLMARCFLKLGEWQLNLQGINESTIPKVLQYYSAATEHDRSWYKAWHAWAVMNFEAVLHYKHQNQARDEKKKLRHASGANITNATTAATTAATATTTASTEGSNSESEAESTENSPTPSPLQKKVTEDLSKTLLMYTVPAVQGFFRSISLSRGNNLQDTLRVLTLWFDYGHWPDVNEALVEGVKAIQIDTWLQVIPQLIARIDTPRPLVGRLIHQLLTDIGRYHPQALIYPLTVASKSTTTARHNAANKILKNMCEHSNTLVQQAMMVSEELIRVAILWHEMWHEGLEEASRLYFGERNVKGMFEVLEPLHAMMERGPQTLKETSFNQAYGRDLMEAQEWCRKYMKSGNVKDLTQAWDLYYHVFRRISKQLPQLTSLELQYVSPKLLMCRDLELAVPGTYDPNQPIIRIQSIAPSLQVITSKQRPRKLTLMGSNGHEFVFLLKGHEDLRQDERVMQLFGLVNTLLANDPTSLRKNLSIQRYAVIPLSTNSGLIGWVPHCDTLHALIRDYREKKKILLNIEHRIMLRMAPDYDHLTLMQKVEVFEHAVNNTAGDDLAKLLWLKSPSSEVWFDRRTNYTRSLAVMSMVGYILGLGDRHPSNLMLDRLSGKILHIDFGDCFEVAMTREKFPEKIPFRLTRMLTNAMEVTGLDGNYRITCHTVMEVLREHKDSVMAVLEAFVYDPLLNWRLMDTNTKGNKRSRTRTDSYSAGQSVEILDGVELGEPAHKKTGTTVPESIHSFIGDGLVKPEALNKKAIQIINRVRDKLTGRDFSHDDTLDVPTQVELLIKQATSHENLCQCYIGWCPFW

SMILES	IC50 (mTOR kinase) [nM]	EC50 (PC-3) [nM]	EC50 (SK-BR3/BT474) [nM]	EC50 (MV-4-11) [nM]
Cn1cc(-c2ccc(-c3ccc4ncc5c(c4c3)n(C3CCCN(C(=O)c4nc[nH]n4)C3)c(=O)n5C)cn2)cn1 (stereo not shown) [Example 2, 1-(1-(1H-1,2,4-triazole-3-carbonyl)piperidin-3-yl)-3-methyl-8-(6-(1-methyl-1H-pyrazol-4-yl)pyridin-3-yl)-1H-imidazo[4,5-c]quinolin-2(3H)-one]	100 to 1000	–	–	–
Cn1cc(-c2ccc(-c3ccc4ncc5c(c4c3)n(C3CCN(C(=O)CO)C3)c(=O)n5C)cn2)cn1 (stereo not shown) [Example 7, 1-(1-(2-hydroxyacetyl)pyrrolidin-3-yl)-3-methyl-8-(6-(1-methyl-1H-pyrazol-4-yl)pyridin-3-yl)-1H-imidazo[4,5-c]quinolin-2(3H)-one]	100 to 1000	< 1000	< 1000	–
CC(=O)N1CCC(n2c(=O)n(C)c3cnc4ccc(-c5ccc(-c6cnn(C)c6)nc5)cc4c32)C1 (stereo not shown) [Example 11, 1-(1-acetylpyrrolidin-3-yl)-3-methyl-8-(6-(1-methyl-1H-pyrazol-4-yl)pyridin-3-yl)-1H-imidazo[4,5-c]quinolin-2(3H)-one]	100 to 1000	< 1000	< 1000	–
Cn1cc(-c2ccc(-c3ccc4ncc5c(c4c3)n(C3CCN(S(=O)(=O)c4ccc(Cl)cc4)C3)c(=O)n5C)cn2)cn1 (stereo not shown) [Example 13, 1-(1-((4-chlorphenyl)sulfonyl)pyrrolidin-3-yl)-3-methyl-8-(6-(1-methyl-1H-pyrazol-4-yl)pyridin-3-yl)-1H-imidazo[4,5-c]quinolin-2(3H)-one]	100 to 1000	< 1000	< 500	–
Cn1cc(-c2ccc(-c3ccc4ncc5c(c4c3)n(C3CCN(C(=O)C(F)(F)F)C3)c(=O)n5C)cn2)cn1 (stereo not shown) [Example 16, 3-methyl-8-(6-(1-methyl-1H-pyrazol-4-yl)pyridin-3-yl)-1-(1-(2,2,2-trifluoroacetyl)pyrrolidin-3-yl)-1H-imidazo[4,5-c]quinolin-2(3H)-one]	100 to 1000	< 1000	–	–
Cn1cc(-c2ccc(-c3ccc4ncc5c(c4n3)n([C@H]3CCN(S(C)(=O)=O)C3)c(=O)n5C)cn2)cn1 [Example 38, (S)-3-methyl-8-(6-(1-methyl-1H-pyrazol-4-yl)pyridin-3-yl)-1-(1-(methanesulfonyl)pyrrolidin-3-yl)-1H-imidazol-[4,5-c][1,5]naphthyridin-2(3H)-one]	< 10	21	–	–
Cn1c(=O)n([C@H]2CCN(S(C)(=O)=O)C2)c2c3nc(-c4ccc(-c5ccccc5)nc4)ccc3ncc21 [Example 39, (S)-3-methyl-1-(1-(methanesulfonyl)pyrrolidin-3-yl)-8-(6-phenylpyridin-3-yl)-1H-imidazo[4,5-c][1,5]naphthyridin-2(3H)-one]	< 10	37	–	–
Cn1cc(-c2ccc(-c3ccc4ncc5c(c4c3)n([C@@H]3CCCN(S(=O)(=O)C(F)(F)F)C3)c(=O)n5C)cn2)cn1 [Example 56, (R)-3-methyl-8-(6-(1-methyl-1H-pyrazol-4-yl)pyridin-3-yl)-1-(1-((trifluoromethyl)sulfonyl)piperidin-3-yl)-1H-imidazo[4,5-c]quinolin-2(3H)-one]	–	< 30	70	60
Cn1cc(-c2ccc(-c3ccc4ncc5c(c4c3)n(C3CCN(S(C)(=O)=O)CC3)c(=O)n5C)cn2)cn1 [Example 59, 3-methyl-8-(6-(1-methyl-1H-pyrazol-4-yl)pyridin-3-yl)-1-(1-(methanesulfonyl)piperidin-4-yl)-1H-imidazo[4,5-c]quinolin-2(3H)-one]	–	30	< 100	100
Cn1cc(-c2ccc(-c3ccc4ncc5c(c4c3)n(C3CCN(S(C)(=O)=O)CC3)c(=O)n5C)cn2)nn1 [Example 60, 3-methyl-8-(6-(1-methyl-1H-1,2,3-triazol-4-yl)pyridin-3-yl)-1-(1-(methanesulfonyl)piperidin-4-yl)-1H-imidazo[4,5-c]quinolin-2(3H)-one]	–	< 30	40	< 100
Cn1cc(-c2ccc(-c3ccc4ncc5c(c4c3)n(C3CC4CCC(C3)N4S(C)(=O)=O)c(=O)n5C)cn2)nn1 (stereo not shown) [Example 61, 3-methyl-8-(6-(1-methyl-1H-1,2,3-triazol-4-yl)pyridin-3-yl)-1-(8-(methanesulfonyl)-8-azabicyclo[3.2.1]octan-3-yl)-1H-imidazo[4,5-c]quinolin-2(3H)-one]	–	< 10	< 10	< 20
Cn1cc(-c2ccc(-c3ccc4ncc5c(c4c3)n(C3CC4CCC(C3)N4S(C)(=O)=O)c(=O)n5C)cn2)cn1 (stereo not shown) [Example 62, 3-methyl-8-(6-(1-methyl-1H-pyrazol-4-yl)pyridin-3-yl)-1-(8-(methanesulfonyl)-8-azabicyclo[3.2.1]octan-3-yl)-1H-imidazo[4,5-c]quinolin-2(3H)-one]	–	< 10	< 20	< 20
